Measured values published in PMC10016038, “Enhanced Endosomal Signaling and Desensitization of GLP-1R vs GIPR in Pancreatic Beta Cells” (Endocrinology, 2023).

Experiments:
[1] = test system: SNAP-tagged human GIPR; assay: High-content microscopy recycling, SNAP-GIPR; format: cell-based; settings: 100 nM, 60 min recycling, 37 °C, n = 5
Experimental: The assay was performed as previously described ([21]). The INS-1 832/3 SNAP-GLP-1R or SNAP-GIPR cells were seeded into poly-D-lysine-coated, black 96-well plates. On the day of the assay, labeling was performed with BG-S-S-649 (1 µM), a surface-labeling SNAP-tag probe that can be released on application of reducing agents such as Mesna. After washing, treatments were applied for 30 minutes at 37 °C in complete medium. Ligand was removed and cells washed with cold HBSS and placed on ice for subsequent steps. Mesna (100 mM in alkaline TNE buffer, pH 8.6) or alkaline TNE buffer without Mesna was applied for 5 minutes, and then washed with HBSS. Cells were imaged by widefield microscopy, with both epifluorescence and transmitted phase contrast images acquired. On imaging completion, HBSS was removed and replaced with fresh complete medium, and receptor was allowed to recycle for 60 minutes at 37 °C, followed by a second Mesna application to remove any receptor that had recycled to the plasma membrane, with the plate re-imaged as above. Internalized receptor at each time point was determined from cell-containing regions as determined from the phase contrast image using […] ([22]) and used to determine internalization and recycling parameters as previously described ([21]). […]

[2] = test system: SNAP-GIPR; assay: Nb37 bystander NanoBiT, endosome (Endofin), GIPR; format: cell-based, human; settings: Endofin-LgBiT, n = 4
Source text: (§1) The Nb37 assay constructs were kindly provided by Prof. Asuka Inoue, Tohoku University, Japan. Nb37 (gene synthesized by GenScript with codon optimization) was C-terminally fused to SmBiT with a 15 amino acid flexible linker ([…]), and the resulting construct referred to as Nb37-SmBiT. The C-terminal KRAS CAAX motif ([…]) was N-terminally fused with LgBiT (LgBiT-CAAX). The Endofin FYVE domain (amino acid region Gln739-Lys806) was C-terminally fused with LgBiT (Endofin-LgBiT). Gαs (human, short isoform), Gβ1 (human), Gγ2 (human), and RIC8B (human, isoform 2) plasmids were inserted into pcDNA3.1 or pCAGGS expression plasmid vectors. INS-1 832/3 GLP-1R KO or GIPR KO cells were seeded in 6-well plates and co-transfected with 0.1 μg SNAP-GLP-1R or SNAP-GIPR, 0.5 μg Gαs, Gβ1, and Gγ2, 0.1 μg RIC8B, 0.1 μg CAAX-LgBiT or 0.5 μg Endofin-LgBiT with 0.1 μg or 0.5 μg Nb37-SmBiT, respectively, with 0.8 µg pcDNA3.1 added to the former to equalize DNA content.
(§2) All NanoBiT and NanoBRET readings were obtained in a Flexstation 3 plate reader. […] Readings were normalized to well baseline and then to average vehicle-induced signal to establish the agonist-induced effect. AUCs from response curves were calculated for each agonist concentration and fitted to four-parameter curves using Prism 9 (GraphPad). […]

[3] = test system: GIPR-NanoLuc; assay: Rab5-Venus bystander NanoBRET (early endosome), GIPR; format: cell-based; settings: n = 5
Source text: (§3) GLP-1R-NanoLuc was generated in house by polymerase chain reaction (PCR) cloning of the NanoLuciferase sequence from pcDNA3.1-ccdB-NanoLuc (a gift from Prof. Mikko Taipale; Addgene plasmid # 87067) onto the C-terminus end of the SNAP-GLP-1R vector (CisBio), followed by site-directed mutagenesis of the GLP-1R stop codon. GIPR-NanoLuc was subsequently cloned in house by exchanging the GLP-1R for the GIPR in the GLP-1R-NanoLuc construct. KRAS- and Rab5-Venus plasmids were a gift from Prof. Kevin Pfleger, University of Western Australia. The INS-1 832/3 GLP-1R KO and GIPR KO cells were seeded in 12-well plates and co-transfected with 0.2 µg KRAS-Venus and 0.1 µg GLP-1R- or GIPR-NanoLuc, respectively, or 0.5 µg Rab5-Venus and 0.1 µg GLP-1R- or GIPR-NanoLuc, respectively.
(§4) All NanoBiT and NanoBRET readings were obtained in a Flexstation 3 plate reader. Briefly, 24 hours after transfection, cells were detached, resuspended in NanoGlo Live Cell Reagent (Promega) with furimazine (1:20 dilution) and seeded into white 96-well half-area plates. […] Readings were normalized to well baseline and then to average vehicle-induced signal to establish the agonist-induced effect. AUCs from response curves were calculated for each agonist concentration and fitted to four-parameter curves using Prism 9 (GraphPad).
Figure 2. Endosomal vs plasma membrane localization of GLP-1R compared with GIPR in beta cells. […]

[4] = test system: GIPR-NanoLuc; assay: KRAS-Venus bystander NanoBRET (plasma membrane), GIPR; format: cell-based; settings: n = 5
Source text: as §3, §4
Figure 2. Endosomal vs plasma membrane localization of GLP-1R compared with GIPR in beta cells. […] Data are mean ± SEM, compared by paired t tests or two-way ANOVA with Sidak's test; *P < .05.

[5] = test system: SNAP-tagged human GIPR; assay: DERET internalization assay, INS-1 832/3 SNAP-GIPR cells; format: cell-based; settings: non-cognate agonist GLP-1, or both agonists combined
Experimental: The diffusion-enhanced resonance energy transfer (DERET) assay was performed as previously described ([21]). The INS-1 832/3 SNAP-GLP-1R or SNAP-GIPR cells were labeled in suspension with Lumi4-Tb (40 nM) for 30 minutes in complete media. After washing, cells were resuspended in HBSS containing 24 µM fluorescein and dispensed into 96-well white plates. A baseline read was serially recorded over 5 minutes using a Flexstation 3 instrument at 37 °C in time-resolved fluorescence resonance energy transfer (TR-FRET) mode using the following settings: λex 340 nm, λem 520 and 620 nm, auto-cutoff, delay 400 µs, integration time 1500 µs. Ligands were then added, after which signal was repeatedly recorded for 30 minutes. Fluorescence signals were expressed ratiometrically after first subtracting signal from wells containing 24 µM fluorescein but no cells. Internalization was quantified as area under the curve (AUC) relative to individual well baseline.
Note that surface expression levels of SNAP-GLP-1R and SNAP-GIPR were similar within these 2 cell models (Supplemental Fig. 1A) ([32]).

[6] = test system: SNAP-GLP-1R; assay: Nb37 bystander NanoBiT, plasma membrane (CAAX), GLP-1R; format: cell-based, human; settings: 30-minute AUC, n = 4
Source text: as §1, §2

Row | Substance | Recycling rate of GIPR compared with GLP-1R [1] | GIPR endosomal activity, Emax response vs GLP-1R [2] | GIPR potency for endosomal signaling vs GLP-1R [2] | Agonist-mediated redistribution of GIPR to Rab5-positive early endosomes [3] | Plasma membrane retention of GIPR compared with GLP-1R ([4]; INS-1 832/3 KO cells) | Maximal internalization response (Emax), GIPR vs GLP-1R [4] | Potency (logEC50), GIPR vs GLP-1R [4] | GIPR internalization [5] | Recruitment of Nb37 to active GLP-1Rs vs GIPRs within the plasma membrane [6]
1 | GIP(1-42) | significantly increased recycling rates | profoundly reduced | increased potency | virtually absent | increased propensity for plasma membrane retention | reduced maximal internalization responses | no changes in potency | – | –
2 | GLP-1(7-36)NH2 | – | – | – | – | – | – | – | negligible | no significant differences
